Assays:
HIV-1 [1] = assay: microbe, parasite or virus in culture; details: Human immunodeficiency virus 1, MT4, read-out: pEC50 (-logEC50) (converted)
Description: (§1) A rapid, sensitive and automated assay procedure was used for the in vitro evaluation of anti-HIV agents. […] In these cells, engineered with GFP (and an HIV-specific promotor), ongoing HIV-infection was measured fluorometrically. Cytotoxicity is measured in the same cells, but engineered with GFP under a constitutional promotor. The infection (or inhibition thereof) of HIV infected cells and the fluorescence of mock-infected cells is assessed by the fluorescent GFP signal generated by the two above mentioned cell lines.

HIV-1 [2] = system: HIV-1
Description: as §1

Compound	EC50 (HIV-1 [1]) [nM]	pEC50 (-logEC50) (HIV-1 [2])	melting point [°C]
Cc1cc(C)c(Nc2n[nH]c(=O)c(Nc3ccc(C#N)cc3)n2)c(C)c1 [Compound 23]	0.794		
Cc1cc(CCC#N)cc(C)c1Nc1nc(Nc2ccc(C#N)cc2)c(=O)n(CCO)n1 [Compound 14]	0.316		
Cc1cc(C)c(Sc2nc(Nc3ccc(C#N)cc3)c(=O)n(C)n2)c(C)c1 [Compound 43]	0.316		
N#Cc1ccc(Nc2nc(Nc3c(F)cc(I)cc3F)n[nH]c2=O)cc1 [Compound 36]		9.9	
N#CCCc1cc(Br)c(Nc2n[nH]c(=O)c(Nc3ccc(C#N)cc3Br)n2)c(Br)c1 [Compound 49]	0.316		
Cc1cc(CCC#N)cc(C)c1Oc1nc(Nc2ccc(C#N)cc2)c(=O)n(CCO)n1 [Compound 70]	0.794		
N#C/C=C/c1cc(F)c(Nc2n[nH]c(=O)c(Nc3ccc(C#N)cc3)n2)c(F)c1 [Compound 38]	0.126		
Cc1cc(C)c(Sc2nc(Nc3ccc(C#N)cc3)nn(C)c2=O)c(C)c1 [Compound 22]	15.8		
CCn1nc(Oc2c(C)cc(CCC#N)cc2C)nc(Nc2ccc(C#N)cc2)c1=O [Compound 69]	0.891		
COc1cc(CCC#N)cc(Cl)c1Nc1nc(Nc2ccc(C#N)cc2)c(=O)n(C)n1 [Compound 72]	0.631		
Cc1cc(/C=C/C#N)cc(C)c1Oc1n[nH]c(=O)c(Nc2ccc(C#N)cc2)n1 [Compound 59]	1.26		
COc1cc(/C=C/C#N)cc(C)c1Nc1nc(Nc2ccc(C#N)cc2)c(=O)n(C)n1 [Compound 42]	0.398		
CCn1nc(Nc2c(C)cc(CCC#N)cc2C)nc(Nc2ccc(C#N)cc2)c1=O [Compound 15]		9.7	243 to 245
Cn1nc(Nc2c(Br)cc(CCC#N)cc2Br)nc(Nc2ccc(C#N)cc2)c1=O [Compound 55]		9	
N#CCCc1cc(Cl)c(Nc2n[nH]c(=O)c(Nc3ccc(C#N)cc3)n2)c(Br)c1 [Compound 19]	6.31		
Cc1cc(CCC#N)cc(C)c1Nc1n[nH]c(=O)c(Nc2ccc(C#N)cc2)n1 [Compound 51]		9.6	
Cc1cc(C)c(Sc2nc(Nc3ccc(C#N)cc3)n[nH]c2=O)c(C)c1 [Compound 20]	0.631		
COc1cc(CCC#N)cc(C)c1Nc1nc(Nc2ccc(C#N)cc2)c(=O)n(CCO)n1 [Compound 47]	0.794		
CCn1nc(Nc2c(C)cc(CCC#N)cc2OC)nc(Nc2ccc(C#N)cc2)c1=O [Compound 40]	0.316		
Cn1nc(Nc2c(Cl)cc(CCC#N)cc2Cl)nc(Nc2ccc(C#N)cc2)c1=O [Compound 17]	1		
N#CCCc1cc(Br)c(Nc2n[nH]c(=O)c(Nc3ccc(C#N)cc3)n2)c(Br)c1 [Compound 2]	0.1		339 to 340
COc1cc(CCC#N)c(Br)cc1Nc1n[nH]c(=O)c(Nc2ccc(C#N)cc2)n1 [Compound 67]	1.51	9.0	
N#CCCc1cc(Cl)c(Nc2n[nH]c(=O)c(Nc3ccc(C#N)cc3)n2)c(Cl)c1 [Compound 58]	3.16		

Compound	EC50 (HIV-1 [1]) [nM]	pEC50 (-logEC50) (HIV-1 [2])	melting point [°C]
N#Cc1ccc(Nc2nc(Nc3c(F)cc(Br)cc3F)n[nH]c2=O)cc1 [Compound 30]		9.2	
Cc1cc(/C=C/C#N)cc(C)c1Nc1n[nH]c(=O)c(Nc2ccc(C#N)cc2)n1 [Compound 4]	0.631		
Cc1cc(C#N)cc(C)c1Nc1nc(Nc2ccc(C#N)cc2)c(=O)n(C)n1 [Compound 46]	0.251		
C/C(C#N)=C\c1cc(C)c(Nc2n[nH]c(=O)c(Nc3ccc(C#N)cc3)n2)c(C)c1 [Compound 68]	1.2		
Cc1cc(/C=C/C#N)cc(C)c1Nc1nc(Nc2ccc(C#N)cc2)n[nH]c1=O [Compound 27]	0.2		
Cc1cc(C)c(Nc2nc(Nc3ccc(C#N)cc3)nn(C)c2=O)c(C)c1 [Compound 18]	12.6		
COc1cc(/C=C/C#N)cc(Cl)c1Nc1n[nH]c(=O)c(Nc2ccc(C#N)cc2)n1 [Compound 71]	0.794		
N#C/C=C/c1cc(Cl)c(Nc2n[nH]c(=O)c(Nc3ccc(C#N)cc3)n2)c(Cl)c1 [Compound 24]	0.631		
COc1cc(/C=C/C#N)cc(C)c1Nc1n[nH]c(=O)c(Nc2ccc(C#N)cc2)n1 [Compound 29]	316		
Cc1cc(CCC#N)cc(C)c1Oc1n[nH]c(=O)c(Nc2ccc(C#N)cc2)n1 [Compound 3]	0.631		351 to 352
Cc1cc(CCC#N)cc(C)c1Nc1n[nH]c(=O)c(Nc2ccc(C#N)cc2)n1 [Compound 32]		8.9	
Cc1cc(CCC#N)cc(C)c1Nc1nc(Nc2ccc(C#N)cc2)c(=O)n(CC(N)=O)n1 [Compound 33]	0.631		
COc1cc(CCC#N)cc(C)c1Nc1n[nH]c(=O)c(Nc2ccc(C#N)cc2)n1 [Compound 39]	0.1		
Cc1cc(CCC#N)cc(C)c1Oc1nc(Nc2ccc(C#N)cc2)c(=O)n(CC#N)n1 [Compound 53]	0.398		
N#Cc1ccc(Nc2nc(Nc3c(F)cc(I)cc3F)n[nH]c2=O)cc1 [Compound 1]		9.5	287 to 290
Cn1nc(Nc2c(Br)cc(CCC#N)cc2Br)nc(Nc2ccc(C#N)cc2)c1=O [Compound 8]		10.0	
C/C(=C\C#N)c1cc(C)c(Nc2n[nH]c(=O)c(Nc3ccc(C#N)cc3)n2)c(C)c1 [Compound 77]	0.794		
Cn1nc(Nc2c(Cl)cc(CCC#N)cc2Br)nc(Nc2ccc(C#N)cc2)c1=O [Compound 21]	1		
Cc1cc(C)c(Nc2nc(Nc3ccc(C#N)cc3)n[nH]c2=O)c(C)c1 [Compound 16]	1		
Cc1cc(/C=C/C#N)cc(C)c1Oc1nc(Nc2ccc(C#N)cc2)c(=O)n(CCO)n1 [Compound 62]	0.316		
Cc1cc(CCC#N)cc(C)c1Nc1nc(Nc2ccc(C#N)cc2)c(=O)n(C)n1 [Compound 9]	0.501		317 to 320
Cc1cc(C#N)cc(C)c1Oc1n[nH]c(=O)c(Nc2ccc(C#N)cc2)n1 [Compound 48]	0.398		
N#CCCn1nc(Nc2c(F)cc(Br)cc2F)nc(Nc2ccc(C#N)cc2)c1=O [Compound 34]		8.5	

Compound	EC50 (HIV-1 [1]) [nM]	pEC50 (-logEC50) (HIV-1 [2])	melting point [°C]
N#C/C=C/c1cc(Cl)c(Nc2n[nH]c(=O)c(Nc3ccc(C#N)cc3)n2)c(Br)c1 [Compound 25]	0.631		
CCn1nc(Nc2c(Cl)cc(CCC#N)cc2OC)nc(Nc2ccc(C#N)cc2)c1=O [Compound 73]	0.631		
Cc1cc(/C=C/C#N)cc(C)c1Oc1nc(Nc2ccc(C#N)cc2)c(=O)n(CC#N)n1 [Compound 61]	1.26		
COc1cc(CCC#N)cc(Cl)c1Nc1nc(Nc2ccc(C#N)cc2)c(=O)n(CC#N)n1 [Compound 75]	0.794		
N#CCCn1nc(Nc2c(F)cc(Br)cc2F)nc(Nc2ccc(C#N)cc2)c1=O [Compound 11]		9.1	246 to 247
Cc1cc(CCC#N)cc(C)c1Oc1nc(Nc2ccc(C#N)cc2)c(=O)n(C)n1 [Compound 56]	0.631		
CCn1nc(Nc2c(C)cc(CCC#N)cc2C)nc(Nc2ccc(C#N)cc2)c1=O [Compound 37]	0.126		
Cc1cc(CCC#N)cc(C)c1Nc1nc(Nc2ccc(C#N)cc2)c(=O)n(CC#N)n1 [Compound 31]	0.316		
Cc1cc(CCC#N)cc(C)c1Nc1n[nH]c(=O)c(Nc2ccc(C#N)cc2)n1 [Compound 5]		9.6	
Cc1cc(/C=C/C#N)cc(C)c1Oc1nc(Nc2ccc(C#N)cc2)c(=O)n(C)n1 [Compound 60]	2.51		
N#C/C=C/c1cc(Br)c(Nc2n[nH]c(=O)c(Nc3ccc(C#N)cc3)n2)c(Br)c1 [Compound 26]	0.631		
Cc1cc(C)c(Sc2n[nH]c(=O)c(Nc3ccc(C#N)cc3)n2)c(C)c1 [Compound 41]		9.7	
COc1cc(CCC#N)cc(Cl)c1Nc1nc(Nc2ccc(C#N)cc2)c(=O)n(CCO)n1 [Compound 74]	0.794		
Cc1cc(CCC#N)cc(C)c1Nc1nc(Nc2ccc(C#N)cc2)c(=O)n(CC#N)n1			243 to 246
C/C(=C\C#N)c1cc(C)c(Nc2nc(Nc3ccc(C#N)cc3)c(=O)n(C)n2)c(C)c1 [Compound 78]	0.794		
N#Cc1ccc(Nc2nc(Nc3c(F)cc(Br)cc3F)n[nH]c2=O)cc1 [Compound 10]	0.316		
Cc1cc(C#N)cc(C)c1Oc1nc(Nc2ccc(C#N)cc2)c(=O)n(C)n1 [Compound 50]	0.158		
COc1cc(C)c(Nc2nc(Nc3ccc(C#N)cc3)c(=O)n(C)n2)c(C)c1 [Compound 35]	10		
Cc1cc(C)c(S(=O)(=O)c2n[nH]c(=O)c(Nc3ccc(C#N)cc3)n2)c(C)c1 [Compound 7]		7.7	303 to 304
Cc1cc(C)c(Sc2n[nH]c(=O)c(Nc3ccc(C#N)cc3)n2)c(C)c1 [Compound 6]		7.8	
Cc1cc(/C=C/C#N)cc(C)c1Nc1nc(Nc2ccc(C#N)cc2)nn(C)c1=O [Compound 28]	3.98		
CCn1nc(Nc2c(C)cc(/C=C/C#N)cc2C)nc(Nc2ccc(C#N)cc2)c1=O [Compound 54]	75.9		
Cc1cc(C)c(S(=O)(=O)c2n[nH]c(=O)c(Nc3ccc(C#N)cc3)n2)c(C)c1 [Compound 52]		8.8	
